Tests used:
[1] = system: P. falciparum NF54 gametocytes; assay: gametocyte viability assay (AlamarBlue); format: cell-based, Plasmodium falciparum; conditions: for IC50: P. falciparum NF54 stage III-V gametocytes, 72 h, AlamarBlue, mean ± SD, n = 3; for Asexual/Gametocyte: ratio of asexual IC50 to gametocyte IC50; for ratio of IC50s, lower IC50 in gametocyte viability assay than in asexual parasite growth assay: asexual versus gametocyte
Description: (§1) Asexual parasites of P. falciparum strain NF54 were cultured as described previously. Briefly, parasites were maintained in RPMI 1640 medium containing 10% positive human serum + erythrocytes (5% haematocrit), 2.5% sodium bicarbonate and 11 µg/mL gentamicin at 37 °C with 5% CO2, 5% O2 and 90% N2. Gametocyte cultures were set up at 0.1% parasitaemia and on days 9–10 treated with 50 mM N-acetylglucosamine (NAG) to block further asexual growth. Stage III–V gametocytes were isolated by Percoll density gradient centrifugation on day 12 and returned to culture for 24 h before being used in the assay. At the time of the assay over 73% of the gametocytes were stage IV or V (Additional file 1). HepG2 cells (ATCC, cat. no. 77400) were cultured in 175-cm^2 tissue culture flasks with 30 ml growth medium at 37 °C in a 5% CO2 and 5% O2 humidified atmosphere. Growth medium was made with Dulbecco’s Modified Eagle Medium with 10% fetal bovine serum (FBS). Growth medium was replaced every other day and cells were passaged at 75% confluence.
Compounds from the Sytravon library (a retired Pharma screening collection that contains a diversity of novel small molecules, with an emphasis on medicinal chemistry-tractable scaffolds) were obtained as powder samples and dissolved in DMSO as […] stock solutions. Compound screening experiments were performed as previously described. In the primary screen, two concentrations for each compound were tested. No technical and biological replicates were involved. In the follow-up confirmation studies, three biological replicates were tested for each compound in both parasite assays. The positive control was 46 µM of Torin 2 and negative control was DMSO. Briefly, 2.5 μL/well incomplete medium was dispensed into each well of 1536-well plates using the Multidrop Combi followed by 23 nL compound transferring using the NX-TR Pintool (WAKO Scientific Solutions, San Diego, CA). Then, 2.5 μL/well of gametocytes was dispensed with a seeding density of 20,000 cells/well using the Multidrop Combi. The assay plates were incubated for 72 h at 37 °C with 5% CO2. After addition of 5 μL/well of 2X AlamarBlue dye (Life Technologies, cat. no. DAL1100), the plates were incubated for 24 h at 37 °C with 5% CO2 and then were read in a fluorescence detection mode (Ex = 525 nm, Em = 598 nm) on a ViewLux plate reader (PerkinElmer).

[2] = system: P. falciparum NF54 asexual parasites; assay: asexual parasite growth inhibition assay (SYBR Green); format: cell-based, Plasmodium falciparum; conditions: 72 h, mean ± SD, n = 3
Description: as §1
Drug activity on asexual stage parasites was tested using a SYBR Green assay as described previously. Briefly, 2.5 μL/well complete culture medium was dispensed into each well of 1536-well plates using the Multidrop Combi followed by 23 nL compound transferring using the NX-TR Pintool. Parasites were diluted to 0.5% parasitaemia in complete culture medium with 2% haematocrit and drugs diluted in DMSO (≤0.5%). The pre-diluted parasites were dispensed into a 1536-well plate (2.5 μL/well). After 72 h incubation under the standard culture conditions, 5 μL/well of lysis buffer containing SYBR Green I was added to the parasite culture and incubated for 30 min at room temperature. The fluorescence of each well was measured in a fluorescence detection mode (Ex = 490 nm, Em = 520 nm) using a ViewLux plate reader (PerkinElmer).

HepG2 cells = assay: HepG2 cytotoxicity assay (AlamarBlue); format: cell-based, human; conditions: for HepG2, IC50 (dash = less than 25% cytotoxicity) / cytotoxicity at 46 µM / IC50: HepG2 cells, 72 h, AlamarBlue; for HepG2, IC50 (dash = less than 25% cytotoxicity) / cytotoxicity at 46 µM: up to 46 µM; for cytotoxicity at 46 µM: Homo sapiens, read-out: HepG2, IC50 (dash = less than 25% cytotoxicity); for IC50 / maximum response, HepG2 cytotoxicity: titration 0.001 to 46 µM; for IC50: mean ± SD, n = 3
Description: as §1
Drug activity on HepG2 was tested using an AlamarBlue assay as previously described. Briefly, 5 μL/well of HepG2 cells were dispensed with a seeding density of 1000 cells/well using the Multidrop Combi. 23 nL compound was transferred using the NX-TR Pintool. After 72 h incubation under the standard culture condition, 5 μL/well of 2X AlamarBlue dye was added to the cells, the plates were incubated for 2 h at 37 °C with 5% CO2 and then were read in a fluorescence detection mode (Ex = 525 nm, Em = 598 nm) on a ViewLux plate reader.

| SMILES | IC50 [1] [µM] | IC50 [2] [µM] | IC50 ([1]; Plasmodium falciparum) [µM] | IC50 ([2]; Plasmodium falciparum) [µM] | ratio of IC50s, lower IC50 in gametocyte viability assay than in asexual parasite growth assay [1] | Asexual/Gametocyte [1] | HepG2, IC50 (dash = less than 25% cytotoxicity) (HepG2 cells) | cytotoxicity at 46 µM (HepG2 cells) [%] | IC50 (HepG2 cells) [µM] | maximum response, HepG2 cytotoxicity (HepG2 cells) [%] |
| --- | --- | --- | --- | --- | --- | --- | --- | --- | --- | --- |
| CC(C)c1ccccc1Oc1c(C(F)(F)F)oc2c(CN3CCN(C)CC3)c(O)ccc2c1=O [NCGC00100597] | 6.04 ± 1.9 | 0.63 ± 0.05 |  |  |  | 0.10 | – (Indicates compounds with less than 25% cytotoxicity at up to 46 µM) |  |  |  |
| CCc1ccc(Oc2c(C(F)(F)F)oc3c(CN4CCN(CC)CC4)c(O)ccc3c2=O)cc1 [NCGC00101506] | 4.82 ± 0.21 | 0.54 ± 0.05 |  |  |  | 0.11 | – (Indicates compounds with less than 25% cytotoxicity at up to 46 µM) |  |  |  |
| CCOc1ccccc1N(C)C(=O)Cn1cnc2sc(C)c(S(=O)(=O)N3CCC(C)CC3)c2c1=O [NCGC00104044] |  | 9.94 ± 0.93 |  |  |  | 0.26 | – (Indicates compounds with less than 25% cytotoxicity at up to 46 µM) |  |  |  |
| CCN(CC)CCCNC(=O)CSc1c2c(nc3cc(Cl)ccc13)CCCC2 [NCGC00110901] | 10.6 ± 1.32 | 36.1 ± 15.2 |  |  | ~ fourfold | 3.41 | – (Indicates compounds with less than 25% cytotoxicity at up to 46 µM) |  |  |  |
| CN1CCN(c2nc3c(S(=O)(=O)c4ccc(Br)cc4)nnn3c3ccsc23)CC1 [NCGC00123034] | 35.2 ± 4.52 | 32.1 ± 12.6 |  |  |  | 0.92 | – (Indicates compounds with less than 25% cytotoxicity at up to 46 µM) |  |  |  |
| O=C(NCc1ccc(Cl)cc1)C1CCCN(C(=O)c2cnn(-c3ccc(F)cc3)c2-n2cccc2)C1 (stereo not drawn) [NCGC00124960] | ~60 | 35.6 ± 1.77 |  |  |  | 0.59 | – (Indicates compounds with less than 25% cytotoxicity at up to 46 µM) |  |  |  |
| CC(C)(C)OC(=O)N1CCC(c2c(C(=O)NCCN3CCC(Cc4ccccc4)CC3)cnn2-c2cccc(Cl)c2)CC1 [NCGC00126892] | 31.3 ± 12.8 | 7.49 ± 0.86 |  |  |  | 0.24 |  |  | 34.4 | 93.0 |
| COc1ccc(CCN2CCC(CNC(=O)c3cnn(-c4ccccc4)c3C3CCN(C(=O)OC(C)(C)C)CC3)CC2)cc1 [NCGC00126987] | 30.6 ± 1.95 | 1.47 ± 0.04 |  |  |  | 0.05 |  |  | 38.6 ± 0.42 | 86.1 |
| CC(C)(C)OC(=O)N1CCC(c2c(C(=O)NCCN3CCOCC3)cnn2-c2ccccc2)CC1 [NCGC00127015] | 20.3 ± 0.31 | 3.05 ± 0.27 |  |  |  | 0.15 |  |  | 38.4 | 87.2 |
| CC(C)(C)OC(=O)N1CCC(c2c(C(=O)NCCN3CCC(Cc4ccccc4)CC3)cnn2-c2ccccc2)CC1 [NCGC00127017] | 11.9 ± 2.05 | 3.44 ± 0.24 |  |  |  | 0.29 |  |  | 25.3 | 87.6 |
| Cc1cc(Nc2ccc(F)cc2)nc(-n2nc(C)cc2C)n1 [NCGC00134124] |  |  | 1.55 ± 0.11 | 5.96 ± 0.7 | ~ fourfold | 3.85 |  | < 25 |  |  |
| COc1ccc(Nc2cc(C)nc(-n3nc(C)cc3C)n2)cc1Cl [NCGC00134126] |  |  | 1.19 ± 0.05 | 4.78 ± 0.43 | ~ fourfold | 4.02 |  | < 25 |  |  |
| Cc1cccc(Nc2cc(C)nc(-n3nc(C)cc3C)n2)c1 [NCGC00134130] |  |  | 1.42 ± 0.24 | 3.26 ± 0.5 |  | 2.30 |  | < 25 |  |  |
| CCCCc1ccc(Nc2cc(C)nc(-n3nc(C)cc3C)n2)cc1 [NCGC00134132] |  |  | 1.29 ± 0.32 | 2.41 ± 0.32 |  | 1.87 |  | < 25 |  |  |
| Cc1cc(Nc2ccc(Cl)cc2C)nc(-n2nc(C)cc2C)n1 [NCGC00134136] | 2.57 ± 0.48 | 4.12 ± 0.1 |  |  |  | 1.60 | – (Indicates compounds with less than 25% cytotoxicity at up to 46 µM) |  |  |  |
| Cc1ccc(Nc2cc(C)nc(-n3nc(C)cc3C)n2)cc1 [NCGC00134154] |  |  | 1.19 ± 0.34 | 2.83 ± 0.31 |  | 2.38 |  | < 25 |  |  |
| Cc1cc(Nc2cc(F)ccc2C)nc(-n2nc(C)cc2C)n1 [NCGC00134156] | 2.1 ± 0.73 | 3.53 ± 0.27 |  |  |  | 1.68 | – (Indicates compounds with less than 25% cytotoxicity at up to 46 µM) |  |  |  |
| Cc1cc(Nc2ccc(F)cc2F)nc(-n2nc(C)cc2C)n1 [NCGC00134158] | 2.08 ± 0.18 | 4.7 ± 0.52 |  |  |  | 2.26 | – (Indicates compounds with less than 25% cytotoxicity at up to 46 µM) |  |  |  |
| COc1ccccc1Cn1c(CNS(=O)(=O)c2cccc([N+](=O)[O-])c2)nc2cccnc21 [NCGC00134795] | 4.25 ± 0.64 | 0.96 ± 0.3 |  |  |  | 0.23 | – (Indicates compounds with less than 25% cytotoxicity at up to 46 µM) |  |  |  |

Continued, in another order:

| IC50 [1] [µM] | IC50 [2] [µM] | IC50 ([1]; Plasmodium falciparum) [µM] | IC50 ([2]; Plasmodium falciparum) [µM] | ratio of IC50s, lower IC50 in gametocyte viability assay than in asexual parasite growth assay [1] | SMILES | Asexual/Gametocyte [1] | HepG2, IC50 (dash = less than 25% cytotoxicity) (HepG2 cells) | cytotoxicity at 46 µM (HepG2 cells) [%] | IC50 (HepG2 cells) [µM] | maximum response, HepG2 cytotoxicity (HepG2 cells) [%] |
| --- | --- | --- | --- | --- | --- | --- | --- | --- | --- | --- |
|  |  | 1.29 ± 0.29 | 2.22 ± 0.35 |  | CC(C)c1ccc(Nc2c(-c3ccccn3)nc3ccccn23)cc1 [NCGC00104490] | 1.72 |  | < 25 |  |  |
| 8.91 ± 0.2 | 13.9 ± 0.93 |  |  |  | COc1ccc(Nc2c(-c3ccccn3)nc3ccc(Cl)cn23)cc1 [NCGC00104528] | 1.56 | – (Indicates compounds with less than 25% cytotoxicity at up to 46 µM) |  |  |  |
| 3.98 ± 1.12 | 4.18 ± 0.68 |  |  |  | Cc1cccc2nc(-c3ccccn3)c(Nc3ccccc3)n12 [NCGC00106055] | 1.05 | – (Indicates compounds with less than 25% cytotoxicity at up to 46 µM) |  |  |  |
| 3.34 ± 0.51 | 7.49 ± 4.11 |  |  |  | Cc1ccc2nc(-c3ccccn3)c(Nc3ccccc3C)n2c1 [NCGC00106087] | 2.24 | – (Indicates compounds with less than 25% cytotoxicity at up to 46 µM) |  |  |  |
| 2.45 ± 0.42 | 4.51 ± 1.29 |  |  |  | Cc1ccc2nc(-c3ccccn3)c(Nc3ccc(F)cc3)n2c1 [NCGC00106091] | 1.84 | – (Indicates compounds with less than 25% cytotoxicity at up to 46 µM) |  |  |  |
| 2.82 ± 0.3 | 4.22 ± 0.29 |  |  |  | Cc1ccn2c(Nc3ccccc3C)c(-c3ccccn3)nc2c1 [NCGC00106119] | 1.50 | – (Indicates compounds with less than 25% cytotoxicity at up to 46 µM) |  |  |  |
|  |  | 1.82 ± 0.11 | 3.53 ± 1.21 |  | Cc1ccn2c(Nc3ccc(F)cc3)c(-c3ccccn3)nc2c1 [NCGC00106780] | 1.94 |  | < 25 |  |  |
|  |  | 1.18 ± 0.17 | 1.93 ± 0.13 |  | Cc1cc(Nc2ccc(C(C)C)cc2)nc(-n2nc(C)cc2C)n1 [NCGC00134128] | 1.64 |  | < 25 |  |  |
